# In patent publication US20030232868A1, “Cyclic carboxylic acids as integrin antagonists” (priority 2000, published 2003):
# How the values were obtained:
# [1] = system: adhesion of Ramos cells to VCAM-1; assay: Adhesion of Ramos cells to immobilized VCAM-1 (domains 1-3) (Ramos—VCAM-1 assay); format: cell-based; settings: Homo sapiens, Ramos, 1 h
# Description: (§1) In Vitro Assay: Adhesion of Jurkat/Ramos Cells to Immobilized VCAM-1 (Domains 1-3)
# (§2) Preparation of VCAM-1 (Extracellular Domains 1-3)
# (§3) Complementary DNA (cDNA) encoding 7 domain form of VCAM-1 (GenBank accession #M60335) was obtained using Rapid-Screen™ cDNA library panels (OriGene Technologies, Inc) at Takara Gene Analysis Center (Shiga, Japan). The primers used were 5′-CCAAGGCAGAGTACGCAAAC-3′ (sense) and 5′-TGGCAGGTATTATTAAGGAG-3′ (antisense). PCR amplification of the 3 domain VCAM-1 cDNA was perform using Pfu DNA polymerase (Stratagene) with the following sets of primers: (U-VCAMd1-3) 5′-CCATATGGTACCTGATCAATTTAAAATCGAGACCACCCCAGAA-3′; (L-VCAMd1-3) 5′-CCATATAGCAATCCTAGGTCCAGGGGAGATCTCAACAGTAAA-3′. PCR cycle was 94° C. for 45 sec. 55° C. for 45 sec, 72° C. for 2 min, repeating 15 cycles. After the purification of the PCR product, the fragment was digested with KpnI-AvrII. The digested fragment was ligated into pBluescript IISK(−) (Strategene), which was linearized by digesting with KpnI-XhoI. The ligation was followed by transformation to a Dam/Dcm methylase-free E. coli strain SCS110 (Strategene) to create the donor plasmid pHH7. To direct VCAM-1 molecule into the insect cell secretory pathway, the VCAM-1 coding sequence was fused to signal peptide sequence of honeybee melittin. The resulting melittin-VCAM fusion was placed in correct orientation to the baculovirus polyhedrin promoter. Baculovirus transfer vector containing first 3-domain form VCAM-1 (pH 10) was constructed by ligation of 0.9 kb fragment from AvrII/Klenow/BclI digests of pH 7 into SalI/Klenow/BamHI digests of pMelBacB Invitrogen). Recombinant baculovirus was generated by using Bac-N-Blue™ Transfection kit (Invitrogen) according to the manufacture's instruction. The recombinant virus was amplified by infection to High-Five™ insect cells for 5-6 days, and virus titer was determined by plaque assay.
# (§4) High-Five™ insect cells were pelleted in a 225 ml conical tube by centrifugation at 1000 rpm for 5 min. After discarding the supernatant, the pellet was resuspended in 1.5×10^9 pfu (MOI=5) of high-titer virus solution, followed by incubation for 1.5 hours at room temperature. The cells were pelleted again and washed once in fresh Express Five™ serum free medium. The cells were pelleted again and finally, resuspended in 200 ml of fresh Express Five TM medium, transferred to a 1,000 ml shaker flask, and incubated in a shaker at 27° C., 130 rpm, for 48 hours before the culture supernatant was collected. The purification of 3-domain form of VCAM-1 from the culture supernatant was performed by one-step anion exchange chromatography. Protein concentration was determined by using Coomassie protein assay reagent (Pierce) according to the manufacture's instruction.
# (§5) Preparation of VCAM-1 Coated Microtiter Plates
# (§6) Recombinant human VCAM-1 (extracellular domains 1-3) was dissolved at 1.0 μg/1 ml in PBS. Each well of the microtiter plates (Nalge Nunc International, Fluoro-nunc Cert, 437958) was coated with 100 μl of substrate or for background control with buffer alone for 15 hours at 4 C. After discarding the substrate solution, the wells were blocked using 150 μl per well of block solution Kirkegaard Perry Laboratories, 50-61-01) for 90 minutes. The plate was washed with wash buffer containing 24 mM Tris-HCl (pH 7.4), 137 mM NaCl, […] and 2 MM MnCl2 just before addition of the assay.
# In Vitro Assay using Ramos Cells
# Preparation of Fluorescence Labeled Ramos Cells:
# (§7) Ramos cells (American Type Culture Collection, Clone CRL-1596) were cultured in RPMI 1640 medium (Nikken Bio Medical Laboratory, CM1101) supplemented with 10% fetal bovine serum (Hyclone, A-1119-L), 100 U/ml penicilin (Gibco BRL, 15140-122) and 100 μg/ml streptomycin (Gibco BRL, 15140-122) in a humidified incubator at 37° C. with 5% CO2. […]
# [2] = system: adhesion of Jurkat cells to VCAM-1; assay: Adhesion of Jurkat cells to immobilized VCAM-1 (domains 1-3) (Jurkat—VCAM-1 assay); format: cell-based, human
# Description: as §1, §2, §3, §4, §5, §6
# In Vitro Assay using Jurkat Cells
# Preparation of Fluorescence Labeled Jurkat Cells:
# as §7, with “Jurkat” for “Ramos”, “E6-1, ATCC TIB-152)” for “CRL-1596)”, “RPM” for “RPMI”
Compound,melting point,IC50 [1],"IC50 ([2]; Homo sapiens, Jurkat, 1 h)","IC50 ([2]; Cell Type Jurkat, adhesion to VCAM-1 coated plates, 1 hour at 37 C, IC50 value ranges)"
COC(=O)c1ccccc1NC(=O)[C@H](CC(C)C)NC(=O)Cc1ccc(NC(=O)Nc2ccccc2C)cc1 [Example 15],170 °C,–,–,–
COC(=O)c1cccc(NC(=O)[C@H](CC(C)C)NC(=O)Cc2ccc(NC(=O)Nc3ccccc3C)cc2)c1 [Example 16],220 °C,–,–,–
"COC(=O)c1ccc(NC(=O)[C@H](CC(C)C)NC(=O)Cc2ccc(NC(=O)Nc3ccccc3C)cc2)cc1 [Example 17, Methyl 4-([({4-[(2-toluidinocarbonyl)amino]phenyl}acetyl)L-leucin]amino)benzoate]",250 to 252 °C,–,–,–
COC(=O)Cc1ccccc1NC(=O)[C@H](CC(C)C)NC(=O)Cc1ccc(NC(=O)Nc2ccccc2C)cc1 [Example 18],218 °C,–,–,–
COC(=O)Cc1cccc(NC(=O)[C@H](CC(C)C)NC(=O)Cc2ccc(NC(=O)Nc3ccccc3C)cc2)c1 [Example 19],200 °C,–,–,–
COC(=O)Cc1ccc(NC(=O)[C@H](CC(C)C)NC(=O)Cc2ccc(NC(=O)Nc3ccccc3C)cc2)cc1 [Example 20],222 °C,–,–,–
CCOC(=O)c1ccc(NC(=O)[C@H](CC(C)C)NC(=O)Cc2ccc(NC(=O)Nc3ccccc3C)cc2)c(Cl)c1 [Example 21],163 to 165 °C,–,–,–
CCOC(=O)c1ccc(NC(=O)[C@H](CC(C)C)NC(=O)Cc2ccc(NC(=O)Nc3ccccc3C)cc2)c(OC)c1 [Example 22],139 to 141 °C,–,–,–
COC(=O)c1ccc(NC(=O)[C@H](CC(C)C)NC(=O)Cc2ccc(NC(=O)Nc3ccccc3C)cc2)cc1Nc1ccccc1 [Example 24],205 to 206 °C,–,–,–
COC(=O)c1ccc(NC(=O)[C@H](CC(C)C)NC(=O)Cc2ccc(NC(=O)Nc3ccccc3C)cc2)cc1Oc1ccccc1 [Example 25],191 to 195 °C,–,–,–
COC(=O)c1cc(Cl)c(NC(=O)[C@H](CC(C)C)NC(=O)Cc2ccc(NC(=O)Nc3ccccc3C)cc2)cc1Cl [Example 26],204 to 205 °C,–,–,–
Cc1ccccc1NC(=O)Nc1ccc(CC(=O)N[C@@H](CC(C)C)C(=O)Nc2ccc(-c3nnn[nH]3)cc2)cc1 [Example 27],255 to 257 °C,2 to 10 µM,–,–
CCOC(=O)C(c1ccc(NC(=O)[C@H](CC(C)C)NC(=O)Cc2ccc(NC(=O)Nc3ccccc3C)cc2)cc1)C1CCCC1 (some centres unmarked) [Example 30],186 to 189 °C,–,–,–
CCOC(=O)Cc1csc(N(C)C(=O)[C@H](CC(C)C)NC(=O)Cc2ccc(NC(=O)Nc3ccccc3C)cc2)n1 [Example 33],125 to 130 °C,–,–,–
Cc1ccccc1NC(=O)Nc1ccc(CC(=O)N[C@@H](CCCCNC(=O)OCc2ccccc2)C(=O)Nc2ccc(C(=O)OCc3ccccc3)cc2)cc1 [Example 35],188 to 189 °C,–,–,–
COCCCN(CC(=O)Nc1ccc(C(=O)OC)cc1)C(=O)Cc1ccc(NC(=O)Nc2ccccc2C)cc1 [Example 36],197 to 198 °C,–,–,–
Cc1ccccc1NC(=O)Nc1ccc(CC(=O)N[C@@H](CC(C)C)C(=O)Nc2ccccc2C(=O)O)cc1 [Example 39],190 °C,–,> 10 µM,–
Cc1ccccc1NC(=O)Nc1ccc(CC(=O)N[C@@H](CC(C)C)C(=O)Nc2cccc(C(=O)O)c2)cc1 [Example 40],220 °C,–,> 10 µM,–
Cc1ccccc1NC(=O)Nc1ccc(CC(=O)N[C@@H](CC(C)C)C(=O)Nc2ccc(C(=O)O)cc2)cc1 [Example 41],219 to 223 °C,–,< 0.5 µM,–

Compound,melting point,IC50 [1],"IC50 ([2]; Homo sapiens, Jurkat, 1 h)","IC50 ([2]; Cell Type Jurkat, adhesion to VCAM-1 coated plates, 1 hour at 37 C, IC50 value ranges)"
Cc1ccccc1NC(=O)Nc1ccc(CC(=O)N[C@@H](CC(C)C)C(=O)Nc2ccccc2CC(=O)O)cc1 [Example 42],186 to 190 °C,–,> 10 µM,–
Cc1ccccc1NC(=O)Nc1ccc(CC(=O)N[C@@H](CC(C)C)C(=O)Nc2cccc(CC(=O)O)c2)cc1 [Example 43],178 to 181 °C,–,0.5 to 2 µM,–
Cc1ccccc1NC(=O)Nc1ccc(CC(=O)N[C@@H](CC(C)C)C(=O)Nc2ccc(CC(=O)O)cc2)cc1 [Example 44],206 °C,–,2 to 10 µM,–
Cc1ccccc1NC(=O)Nc1ccc(CC(=O)N[C@@H](CC(C)C)C(=O)Nc2ccc(C(=O)O)cc2Cl)cc1 [Example 45],154 to 158 °C,–,–,A-B
COc1cc(C(=O)O)ccc1NC(=O)[C@H](CC(C)C)NC(=O)Cc1ccc(NC(=O)Nc2ccccc2C)cc1 [Example 46],138 to 142 °C,> 10 µM,–,–
Cc1ccccc1NC(=O)Nc1ccc(CC(=O)N[C@@H](CC(C)C)C(=O)Nc2ccc(C(=O)O)c(Cl)c2)cc1 [Example 47],178 to 180 °C,< 0.5 µM,–,–
Cc1ccccc1NC(=O)Nc1ccc(CC(=O)N[C@@H](CC(C)C)C(=O)Nc2ccc(C(=O)O)c(Nc3ccccc3)c2)cc1 [Example 48],164 to 169 °C,< 0.5 µM,–,–
Cc1ccccc1NC(=O)Nc1ccc(CC(=O)N[C@@H](CC(C)C)C(=O)Nc2ccc(C(=O)O)c(Oc3ccccc3)c2)cc1 [Example 49],158 to 160 °C,< 0.5 µM,–,–
Cc1ccccc1NC(=O)Nc1ccc(CC(=O)N[C@@H](CC(C)C)C(=O)Nc2cc(Cl)c(C(=O)O)cc2Cl)cc1 [Example 50],185 to 188 °C,2 to 10 µM,–,–
Cc1ccccc1NC(=O)Nc1ccc(CC(=O)N[C@@H](CC(C)C)C(=O)Nc2cc(C(=O)O)cc([N+](=O)[O-])c2)cc1 [Example 51],188 to 190 °C,2 to 10 µM,–,–
Cc1ccccc1NC(=O)Nc1ccc(CC(=O)N[C@@H](CC(C)C)C(=O)N2CCCc3cc(C(=O)O)ccc32)cc1 [Example 52],–,2 to 10 µM,–,–
Cc1ccccc1NC(=O)Nc1ccc(CC(=O)N[C@@H](CC(C)C)C(=O)Nc2ccc(C(C(=O)O)C3CCCC3)cc2)cc1 (some centres unmarked) [Example 53],206 to 208 °C,–,2 to 10 µM,–
Cc1ccccc1NC(=O)Nc1ccc(CC(=O)N[C@@H](CC(C)C)C(=O)Nc2nc(CC(=O)O)cs2)cc1 [Example 54],178 to 180 °C,–,2 to 10 µM,–
Cc1ccccc1NC(=O)Nc1ccc(CC(=O)N[C@@H](CC(C)C)C(=O)Nc2nnc(CC(=O)O)s2)cc1 [Example 55],187 to 189 °C,–,2 to 10 µM,–
Cc1ccccc1NC(=O)Nc1ccc(CC(=O)N[C@@H](CC(C)C)C(=O)N(C)c2nc(CC(=O)O)cs2)cc1 [Example 56],172 to 174 °C,> 10 µM,–,–
Cc1ccccc1NC(=O)Nc1ccc(CC(=O)N[C@@H](CC(C)C)C(=O)Nc2ccc3[nH]c(C(=O)O)cc3c2)cc1 [Example 57],–,–,> 10 µM,–
Cc1ccccc1NC(=O)Nc1ccc(CC(=O)N[C@@H](CC(C)C)C(=O)NC2CCC(C(=O)O)CC2)cc1 (some centres unmarked) [Example 60],175 °C (dec.),–,2 to 10 µM,–
Cc1ccccc1NC(=O)Nc1ccc(CC(=O)N[C@@H](CC(C)C)C(=O)NC2CCCCC2C(=O)O)cc1 (some centres unmarked) [Example 61],–,2 to 10 µM,–,–
